For eight compounds, EC50 results are on record in patent US20250002471A1 (Gilead Sciences, Inc., priority 2020, published 2025).

This assay concerns the target T1, TLR8 (Homo sapiens, UniProt Q9NR97).
T1 construct: lymphocytes, monocytes and dendritic cells that express TLR7, TLR8 and TLR9; endogenous in cells; host or cells: human PBMCs from healthy donors
T1 sequence (Q9NR97 27-1041): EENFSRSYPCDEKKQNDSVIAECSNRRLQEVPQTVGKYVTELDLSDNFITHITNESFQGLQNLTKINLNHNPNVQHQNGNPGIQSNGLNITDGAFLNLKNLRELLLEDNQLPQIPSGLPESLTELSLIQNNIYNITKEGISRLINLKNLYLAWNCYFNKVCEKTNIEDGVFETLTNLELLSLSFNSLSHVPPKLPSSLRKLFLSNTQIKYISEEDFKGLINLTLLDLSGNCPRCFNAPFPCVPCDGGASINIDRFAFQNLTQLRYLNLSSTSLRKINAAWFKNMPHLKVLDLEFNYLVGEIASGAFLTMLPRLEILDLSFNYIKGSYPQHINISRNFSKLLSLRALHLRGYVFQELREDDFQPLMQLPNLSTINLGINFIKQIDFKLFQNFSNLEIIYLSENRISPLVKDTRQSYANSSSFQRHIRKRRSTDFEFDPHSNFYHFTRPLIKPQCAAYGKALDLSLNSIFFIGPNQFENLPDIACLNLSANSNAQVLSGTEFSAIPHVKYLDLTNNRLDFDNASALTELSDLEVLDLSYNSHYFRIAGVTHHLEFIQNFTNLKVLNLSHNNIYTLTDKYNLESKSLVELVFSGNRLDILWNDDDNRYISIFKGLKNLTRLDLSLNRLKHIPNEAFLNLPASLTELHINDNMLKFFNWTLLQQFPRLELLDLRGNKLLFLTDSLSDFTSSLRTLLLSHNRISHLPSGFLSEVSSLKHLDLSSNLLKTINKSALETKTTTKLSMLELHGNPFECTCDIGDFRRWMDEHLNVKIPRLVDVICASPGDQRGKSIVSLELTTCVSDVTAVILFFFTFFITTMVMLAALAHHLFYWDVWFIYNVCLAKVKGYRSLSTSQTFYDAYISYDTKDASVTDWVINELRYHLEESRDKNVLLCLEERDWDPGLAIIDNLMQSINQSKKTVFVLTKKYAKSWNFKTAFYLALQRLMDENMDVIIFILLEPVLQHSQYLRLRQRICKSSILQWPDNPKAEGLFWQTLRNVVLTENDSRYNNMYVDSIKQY
Description: TLR8 human PBMC cell-based assay, TLR8 agonist Compound A stimulation, cytokine (TNFa and IL12p40) readout. The conditions noted are these: human PBMCs, Compound A 800 nM, 6 hours; Table 26; read-out: TLR-8 EC50. Here is the method: Cryopreserved human PBMCs from healthy donors were thawed and resuspended in RPMI-1640 media with L-glutamine (Corning) supplemented with 10% Fetal Bovine Serum (Hyclone) and 1X Penicillin-Streptomycin (Corning). After counting, the cell density was adjusted to 2 million cells/ml and incubated for 1 hour at 37° C., 5% CO2 for recovery. Following the recovery, the cells were plated by adding 50p per well (100,000 cells) to 384-well cell culture plates (Greiner) containing 250nl of test antagonists in 100% DMSO per well, in a 10 points dose response in quadruplicates. PBMCs were incubated in the presence of antagonists for one hour at 37° C., 5% CO2 before being stimulated with TLR8 agonist. Compound A (Gilead Sciences, U.S. Pat. No. 10,285,990) was used as the TLR8 agonist at a final concentration of 800 nM. PBMCs were incubated in the presence of antagonist and the TLR8 agonist for an additional 6 hours at 37° C., […]. At the end of the incubation, the cell culture plates were centrifuged at 500 g for 5 min, and the cell culture supernatant was collected. The level of cytokines (TNFa and IL12p40) in the supernatant was measured by electrochemiluminescence immunoassays (Mesoscale Discovery) following manufacturer's recommended protocols. The level of cytokine measured was plotted against the antagonist concentration and fitted to a sigmoidal function to determine the EC50, which are shown below in Table 11.

Regarding `Cc1cc(-c2[nH]c3cc(C4CCNCC4)ccc3c2C)cc(C)n1` [Example 48, 2-(2,6-dimethylpyridin-4-yl)-3-methyl-6-(piperidin-4-yl)-1H-indole], the EC50 (in general, the midpoint of the concentration-response curve) was found to be 570 nM.
The same measure for `Cc1cc(-c2[nH]c3cc(-c4ccc(N5CCNCC5)nc4)ccc3c2C2CC2)cn(C)c1=O` [Example 165]: 8.46 nM.
The same measure for `Cc1cc(-c2[nH]c3cc(-c4ccc(N5CCN(CCO)CC5)nc4)ccc3c2C)cc(C)n1` [Example 37, 2-(4-(5-(2-(2,6-dimethylpyridin-4-yl)-3-methyl-1H-indol-6-yl)pyridin-2-yl)piperazin-1-yl)ethan-1-ol]: 631 nM.
On to `Cc1cc(-c2[nH]c3cc(C4CCNCC4)ccc3c2C(C)C)cn2ncnc12` [Example 55], for which the EC50 came to 9.08 nM.
The same measure for `Cc1c(-c2cc(C)c3ncnn3c2)[nH]c2cc(-c3ccc(N4CCNCC4)nc3)ccc12` [Example 71]: 35.9 nM.
Consider `CCc1c(-c2cc(OC)c3ncnn3c2)[nH]c2cc(-c3ccc(N4CCNCC4)nc3)ccc12` [Example 169], for which the concentration giving a half-maximal response (EC50) is 3.35 nM.
The same measure for `Cc1cc(-c2[nH]c3cc(-c4ccc(N5CCNCC5)nc4)ccc3c2C)cc(C)n1` [Example 1, 2-(2,6-dimethylpyridin-4-yl)-3-methyl-6-(6-(piperazin-1-yl)pyridin-3-yl)-1H-indole]: 770 nM; for `CCc1c(-c2cc(C)c3ncnn3c2)[nH]c2cc(-c3ccc(N4CCNCC4)nc3)ccc12` [Example 167, 6-(3-ethyl-6-(6-(piperazin-1-yl)pyridin-3-yl)-1H-indol-2-yl)-8-methyl-[1,2,4]triazolo[1,5-a]pyridine]: 3.75 nM.
